One substance from patent US6440935B1, “Inhibition of eucaryotic pathogens and neoplasms and stimulation of fibroblasts and lymphocytes with lytic peptides” (priority 1987, dated 2002) can be followed below.

Read-outs that look alike come from different tables or passages of the source. No end group written: not given here.

One assay concerns Saccharomyces cerevisiae. Briefly: Effect of lytic peptides on S. cerevisiae (plate count). Conditions: 1 hour at 37° C., PBS pH 6.8, 500 at 0 μM.
In another assay the test system is E. coli E/2/64. Briefly: Lysozyme/cecropin synergism against E. coli (plate growth).
The test system of another assay is Brucella abortus. The assay is classed as cell-based. Conditions: 50 μM.
The test system of assay [1] is Plasmodium falciparum in human red blood cells. Conditions: 24 hours.

Consider “Cecropin B: naturally occurring potent bacteriolytic peptide obtainable from insects; sequence in Table 1 (KWKVFKKIEKMGRNIRNGIVKAGPAIAVLGEAKAL; ends and bridges not checked; UniProt P01508 27-61, looked up)”, for which the “Plate Count (Thousands)” value worked out at 500 Thousands in the assay with Saccharomyces cerevisiae (5 μM), 75 Thousands in the assay with Saccharomyces cerevisiae (50 μM) and 0 Thousands in the assay on Saccharomyces cerevisiae (750 μM). For the same substance, in the assay with E. coli E/2/64 (5 μM, 90 minutes at room temperature), the “growth of E. coli (plate counts)” value was “no growth of E. coli”. In addition, in the assay on E. coli E/2/64 (one nanomolar and one micromolar), the “growth of E. coli” value is listed as “positive E. coli growth”. Also, in the assay on Brucella abortus, the “Results (growth of Brucella abortus)” value is on record as “No growth”. The “3H-Hypoxanthine Uptake” value is recorded as 380 cpm in assay [1] (1 μM, P. falciparum 0.0625 PPRC); 565 cpm in assay [1] (1 μM, P. falciparum 0.125 PPRC); 1293 cpm in assay [1] (1 μM, P. falciparum 0.25 PPRC); 2860 cpm in assay [1] (1 μM, P. falciparum 0.5 PPRC); 405 cpm in assay [1] (20 μM, P. falciparum 0.0625 PPRC); 495 cpm in assay [1] (20 μM, P. falciparum 0.125 PPRC). Further, the “3H-Hypoxanthine Uptake” value worked out at 1066 cpm in assay [1] (20 μM, P. falciparum 0.25 PPRC); 2333 cpm in assay [1] (20 μM, P. falciparum 0.5 PPRC); 25 cpm in assay [1] (200 μM, P. falciparum 0.0625 PPRC); 20 cpm in assay [1] (200 μM, P. falciparum 0.125 PPRC); 40 cpm in assay [1] (200 μM, P. falciparum 0.25 PPRC); 50 cpm in assay [1] (200 μM, P. falciparum 0.5 PPRC).
